Measured values as given in patent US20070265164A1, “Active Substances for Increasing Pathogenic Defense in Plants and Methods for the Detection Thereof” (Bayer Cropscience GmbH, priority 2004, published 2007).

Columns and labels:
Type in all cases: in vivo
Set-up in all cases: fold induction: dose or concentration left out as unconfirmed
[1] = system: Contig5146_at, Probable 12-oxophytodienoate reductase (EC 1.3.1.42); experiment: GEP, barley DNA chip, probe set 1.4; settings: for fold induction / fold induction at 150 g/ha: Hordeum vulgare, topical, read-out: Expression value, 1.4 Contig5146_at; for fold induction: rates of Table 1 (S7 500); for fold induction at 150 g/ha: 6 h
Description: (§1) Barley plants (cv. Baronesse) were grown in compost-filled pots (diameter: 10 cm) for 10 days in a controlled-environment cabinet under defined light, humidity and temperature conditions (white light, 70% atmospheric humidity, 24° C.). At the time of spray application, the seedlings were approximately 15 cm in size. The test substances selected in this example were molecules which differ markedly in their structure and which have a well documented pronounced safener effect, and other molecules which are known from the literature to have an effect on plant stress and pathogen tolerance (Table 1). The substances were prepared as stock solutions in DMSO (dimethyl sulfoxide) at c=10 mg/ml). This was used for preparing dilutions in water supplemented with 0.2% Agrotin (comprises polyvinyl alcohol, silicones, polysaccharides and pH regulators, manufacturer: Bayer CropScience AG, Monheim, Germany), as wetter, to give the application rates shown in the table. The amount of liquid for the spray application was 800 μl per pot, corresponding to 800 l/ha. For each 800 μl of spray mixture, 16 μl of EC premix: diacetone alcohol=1:6 were additionally added as formulation auxiliaries. The substances listed in Table 1 were applied to the leaves by means of a pneumatic spray pistol. Each substance was sprayed as 2 dosages, and all experiments were carried out as replicates (2 pots per substance). Sprayings with blank formulation without active ingredient were carried out as controls. After 6 hours, the leaves were harvested, frozen in liquid nitrogen and stored at −80° C. until further use. The labeled RNA probes for the DNA chip hybridization were prepared as described in the protocols (Expression Analysis, Technical Manual) from Affymetrix (Affymetrix Inc., 3380 Central Expressway, Santa Clara, Calif., USA). First, total RNA was isolated from in each case 500 mg of the harvested leaves. In each case 10 μg of total RNA was used for the first-strand and second-strand cDNA synthesis. The cDNA was amplified with T7 polymerase and simultaneously labeled with biotin-UTP. In each case, 20 μg of this biotinylated cDNA was employed for the hybridization of the barley genome array (Gene Chip Barleyl, order No.: 511012) from Affymetrix. This DNA microarray comprises DNA sequences of 22 840 genes which are composed of a total of 400 000 EST sequences. Thereafter, the DNA microarrays were washed in the Affymetrix Fluidics Station, stained with streptavidin/phycoerythrin (Molecular Probes, P/N S-866) and scanned with the matching Agilent Laser Scanner (Agilent Gene Array Scanner). The fluorescent data obtained were analyzed with the software Microarray Suite 5 from Affymetrix. After the quality had been checked, all DNA chip analyses were stored in a database. To determine the relative expression values for genes (induction factors, repression factors), test and control chips were compared with each other, and the scoring function set by the Affymetrix software was used as the basis. The 2 biological replications of one experiment were compared in each case with 2 control chips (blank formulation), and the 4 expression values obtained for each gene were used for calculating the median. These medians are shown in the results tables as induction factors. Similarity comparisons of expression profiles from different experiments and cluster analyses were carried out using the software GeneMaths 1.5 from Applied Maths (Applied Maths, Keistraat 120, 9830 Sint-Martens-Latem, Belgium).
(§2) Gene groups from specific metabolic pathways and signal transduction chains were put together by key word search in the annotations, of the genes, which were also provided by Affymetrix, and by Blast analyses (homology comparisons) of the DNA target sequences, i.e. of the positive sequence (identified on the basis of a modified expression profile) identified on the DNA chip, using gene sequences from other organisms, preferably plant organisms, with characterized functions. […]

[2] = system: Contig5607_s_at, Pathogen-related protein (PirT06168); experiment: GEP, barley DNA chip, probe set 4.3; settings: for fold induction / fold induction at 150 g/ha: Hordeum vulgare, topical, read-out: Expression value, 4.3 Contig5607_s_at; for fold induction: rates of Table 1 (S7 500); for fold induction at 150 g/ha: 6 h
Description: as §1, §2

[3] = system: Contig6611_at, Similar to lipases; experiment: GEP, barley DNA chip, probe set 1.12; settings: for fold induction / fold induction at 150 g/ha: Hordeum vulgare, topical, read-out: Expression value, 1.12 Contig6611_at; for fold induction: rates of Table 1 (S7 500); for fold induction at 150 g/ha: 6 h
Description: as §1, §2

[4] = system: Contig2337_at, 12-oxophytodienoate reductase (OPR1); experiment: GEP, barley DNA chip, probe set 1.20; settings: for fold induction / fold induction at 150 g/ha: Hordeum vulgare, topical, read-out: Expression value, 1.20 Contig2337_at; for fold induction: rates of Table 1 (S7 500); for fold induction at 150 g/ha: 6 h
Description: as §1, §2

[5] = system: HD07M22r_s_at, Proteinase-Inhibitor (pir S71555, barley); experiment: GEP, barley DNA chip, probe set 2.4; settings: for fold induction / fold induction at 150 g/ha: Hordeum vulgare, topical, read-out: Expression value, 2.4 HD07M22r_s_at; for fold induction: rates of Table 1 (S7 500); for fold induction at 150 g/ha: 6 h
Description: as §1, §2

[6] = system: Contig9556_at, 12-oxophytodienoate reductase 3; experiment: GEP, barley DNA chip, probe set 1.8; settings: for fold induction / fold induction at 150 g/ha: Hordeum vulgare, topical, read-out: Expression value, 1.8 Contig9556_at; for fold induction: rates of Table 1 (S7 500); for fold induction at 150 g/ha: 6 h
Description: as §1, §2

[7] = system: Contig3097_at, Allene oxide synthase; experiment: GEP, barley DNA chip, probe set 1.3; settings: for fold induction / fold induction at 150 g/ha: Hordeum vulgare, topical, read-out: Expression value, 1.3 Contig3097_at; for fold induction: rates of Table 1 (S7 500); for fold induction at 150 g/ha: 6 h
Description: as §1, §2

[8] = system: Contig2631_at, Lipase-like Protein (jasmonic acid biosynthesis gene); experiment: Gene expression profiling (GEP), barley DNA chip, probe set 1.1; settings: for fold induction / fold induction at 150 g/ha: Hordeum vulgare; for fold induction: rates of Table 1 (S7 500); for fold induction at 150 g/ha: 6 h, read-out: Expression value, 1.1 Contig2631_at
Description: as §1, §2

[9] = system: Contig2990_at, Chitinase (EC 3.2.1.14); experiment: GEP, barley DNA chip, probe set 5.1; settings: for fold induction / fold induction at 150 g/ha: Hordeum vulgare, topical, read-out: Expression value, 5.1 Contig2990_at; for fold induction: rates of Table 1 (S7 500); for fold induction at 150 g/ha: 6 h
Description: as §1, §2

[10] = system: Contig2088_s_at, Bowman-Birk type trypsin inhibitor; experiment: GEP, barley DNA chip, probe set 2.1; settings: for fold induction / fold induction at 150 g/ha: Hordeum vulgare, topical, read-out: Expression value, 2.1 Contig2088_s_at; for fold induction: rates of Table 1 (S7 500); for fold induction at 150 g/ha: 6 h
Description: as §1, §2

[11] = system: HV_Ceb0020D05r2_s_at, Allene oxide cyclase; experiment: GEP, barley DNA chip, probe set 1.6; settings: Hordeum vulgare, topical, read-out: Expression value, 1.6 HV_Ceb0020 D05r2_s_at; for fold induction: barley leaves 6 h after spray application, rates of Table 1 (S7 500), median induction factor vs control; for fold induction at 150 g/ha: 6 h
Description: as §1, §2

[12] = system: Contig2118_at, Peroxidase (EC 1.11.1.7), pathogen-induced; experiment: GEP, barley DNA chip, probe set 4.1; settings: for fold induction / fold induction at 150 g/ha: Hordeum vulgare, topical, read-out: Expression value, 4.1 Contig2118_at; for fold induction: rates of Table 1 (S7 500); for fold induction at 150 g/ha: 6 h
Description: as §1, §2

[13] = barley leaves 6 h after spray application, median induction factor vs control
[14] = barley leaves 6 h after spray application, rates of Table 1 (150 g a.i./ha, S7 500), median induction factor vs control

Structure (SMILES) | fold induction [1, 13] | fold induction [2, 13] | fold induction [3, 13] | fold induction [4, 13] | fold induction [5, 13] | fold induction [6, 13] | fold induction [7, 13] | fold induction [8, 13] | fold induction [9, 13] | fold induction [10, 13] | fold induction [11] | fold induction [12, 13] | also measured
COC(=O)C1=NN(c2ccc(Cl)cc2Cl)C(C)(C(=O)OC)C1 (centres unmarked) [S1, Mefenpyr-dimethyl] | 7.73 | 18.6 | 1 | 4.89 | 6.32 | 1 | 1 | 1 | 4.17 | 1 | 1 | 8.69 | –
O=C(O)C1=NN(c2ccc(Cl)cc2Cl)C(c2ccc(F)cc2)C1 (centres unmarked) [S2] | 4.47 | 15.6 | 1 | 1 | 1 | 1 | 1 | 1 | 1 | 1 | 1 | 1 | –
CCOC(=O)C1=NOC(c2ccccc2)(c2ccccc2)C1 [S3, Isoxadifen-ethyl] | – | – | – | – | – | – | – | – | – | – | – | – | fold induction at 150 g/ha [1]: 4.5; fold induction at 150 g/ha [2]: 13.4; fold induction at 150 g/ha [3]: 2.41; fold induction at 150 g/ha [4]: 1; fold induction at 150 g/ha [5]: 2.71; fold induction at 150 g/ha [6]: 3.03; fold induction at 150 g/ha [7]: 8.51; fold induction at 150 g/ha [8]: 97.7; fold induction at 150 g/ha [9]: 2.77; fold induction at 150 g/ha [10]: 4.26; fold induction at 150 g/ha [11]: 3.68; fold induction at 150 g/ha [12]: 4.86
CCCCCC(C)OC(=O)COc1ccc(Cl)c2cccnc12 (centres unmarked) [S4, Cloquintocet-mexyl] | 4.72 | 18.4 | 1 | 1 | 1 | 1 | 1 | 1 | 1 | 1 | 1 | 1 | –
CCOC(=O)C(Oc1ccc(Cl)c2cccnc12)C(=O)OCC [S5] | 5.35 | 8.75 | 1 | 1 | 7.84 | 1 | 1 | 1 | 1 | 1 | 1 | 2.33 | –
NC(=O)c1ccc(C(F)(F)F)nc1O [S6] | 6.77 | 9.99 | 1 | 1 | 5.1 | 1 | 1 | 1 | 1 | 1 | 1 | 2.2 | –
O=C(NO)c1ccccc1O [S7, Salicyl hydroxamate] | – | – | – | – | – | – | – | – | – | – | – | – | Expression value, 1.4 Contig5146_at [1, 14]: 1.00 x times; Expression value, 4.3 Contig5607_s_at [2, 14]: 1.00 x times; Expression value, 1.12 Contig6611_at [3, 14]: 2.31 x times; Expression value, 1.20 Contig2337_at [4, 14]: 1.00 x times; Expression value, 2.4 HD07M22r_s_at [5, 14]: 1.00 x times; Expression value, 1.8 Contig9556_at [6, 14]: 1.00 x times; Expression value, 1.3 Contig3097_at [7, 14]: 1.00 x times; Expression value, 1.1 Contig2631_at [8, 14]: 1.00 x times; Expression value, 5.1 Contig2990_at [9, 14]: 1.00 x times; Expression value, 2.1 Contig2088_s_at [10, 14]: 4.79 x times; Expression value, 4.1 Contig2118_at [12, 14]: 1.00 x times
CSC(=O)c1cccc2nnsc12 [S8, Acibenzolar-S-methyl] | 1 | 1 | 3.61 | 1 | 1 | 1 | 2.11 | 1 | 1 | 7.36 | 1 | 1 | –
O=C(O)c1cc(Cl)nc(Cl)c1 [S9] | – | – | – | – | – | – | – | – | – | – | – | – | fold induction at 150 g/ha [1]: 1; fold induction at 150 g/ha [2]: 1; fold induction at 150 g/ha [3]: 2; fold induction at 150 g/ha [4]: 1; fold induction at 150 g/ha [5]: 1; fold induction at 150 g/ha [6]: 1; fold induction at 150 g/ha [7]: 1; fold induction at 150 g/ha [8]: 1; fold induction at 150 g/ha [9]: 2.39; fold induction at 150 g/ha [10]: 2.36; fold induction at 150 g/ha [11]: 1; fold induction at 150 g/ha [12]: 1
